Data as given in ChEMBL document CHEMBL3885881, “DrugMatrix”.

Organism: Rattus norvegicus
Experiment: DrugMatrix - Regimen: Daily Repeat
Format: toxicity, organism-based, Sprague-Dawley
Parameters: regimen Daily Repeat, gender Male, age 6-8 weeks
Details: in vivo, po, route oral GAVAGE, vehicle .5 % CMC; for ABSOLUTE BASOPHIL / ABSOLUTE EOSINOPHIL / ABSOLUTE LYMPHOCYTE / ABSOLUTE MONOCYTE / ABSOLUTE SEGMENTED NEUTROPHIL / BASOPHIL / EOSINOPHIL / ERYTHROCYTE COUNT / HEMATOCRIT / HEMOGLOBIN / LEUKOCYTE COUNT / LYMPHOCYTE / MEAN CORPUSCULAR HEMOGLOBIN / MEAN CORPUSCULAR HEMOGLOBIN CONCENTRATION / MEAN CORPUSCULAR VOLUME / MONOCYTE / NEUTROPHIL / NUCLEATED RED BLOOD CELLS / PLATELET COUNT: tissue Blood; for ALANINE AMINOTRANSFERASE / ALBUMIN / ALKALINE PHOSPHATASE / ASPARTATE AMINOTRANSFERASE / BLOOD UREA NITROGEN / CARBON DIOXIDE / CHLORIDE / CHOLESTEROL / CREATINE PHOSPHOKINASE / CREATININE / GLUCOSE / LACTATE DEHYDROGENASE / LIPASE / PHOSPHORUS / POTASSIUM / SODIUM / TOTAL BILIRUBIN / TOTAL PROTEIN / URIC ACID: tissue Plasma
[1] = 80 mg/kg, 72 h, dose level Low, time 3 day
[2] = 80 mg/kg, 120 h, dose level Low, time 5 day
[3] = 1500 mg/kg, 72 h, dose level High, time 3 day
[4] = 1500 mg/kg, 120 h, dose level High, time 5 day

## O=c1cnn([C@@H]2O[C@H](CO)[C@@H](O)[C@H]2O)c(=O)[nH]1 [6-AZAURIDINE]
[1]
  ABSOLUTE BASOPHIL: 0 CELLS/uL
  ABSOLUTE EOSINOPHIL: 0 CELLS/uL
  ABSOLUTE LYMPHOCYTE: 15386 CELLS/uL
  ABSOLUTE MONOCYTE: 95.33 CELLS/uL
  ABSOLUTE SEGMENTED NEUTROPHIL: 852 CELLS/uL
  BASOPHIL: 0%
  EOSINOPHIL: 0%
  ERYTHROCYTE COUNT: 5.24 x10E6/uL
  HEMATOCRIT: 34.9%
  HEMOGLOBIN: 13.33 G/DL
  LEUKOCYTE COUNT: 16.33 x10E3/uL
  LYMPHOCYTE: 94%
  MEAN CORPUSCULAR HEMOGLOBIN: 25.47 pg
  MEAN CORPUSCULAR HEMOGLOBIN CONCENTRATION: 38.2 G/DL
  MEAN CORPUSCULAR VOLUME: 66.6 fL
  MONOCYTE: 0.67%
  NEUTROPHIL: 5.33%
  NUCLEATED RED BLOOD CELLS: 0.33 /100WBC
  PLATELET COUNT: 1177.67 x10E3/uL
  ALANINE AMINOTRANSFERASE: 32.67 u/L
  ALBUMIN: 4.23 G/DL
  ALKALINE PHOSPHATASE: 410.67 u/L
  ASPARTATE AMINOTRANSFERASE: 74.33 u/L
  BLOOD UREA NITROGEN: 15.33 mg/dL
  CARBON DIOXIDE: 25 mmol/L
  CHLORIDE: 106.67 MEQ/L
  CHOLESTEROL: 73.67 mg/dL
  CREATINE PHOSPHOKINASE: 134.33 u/L
  CREATININE: 0.2 mg/dL
  GLUCOSE: 173.33 mg/dL
  LACTATE DEHYDROGENASE: 86.67 u/L
  LIPASE: 10.33 u/L
  PHOSPHORUS: 12.67 mg/dL
  POTASSIUM: 6.8 MEQ/L
  SODIUM: 148.73 MEQ/L
  TOTAL BILIRUBIN: 0.2 mg/dL
  TOTAL PROTEIN: 5.93 G/DL
  URIC ACID: 1.7 mg/dL
[2]
  ABSOLUTE BASOPHIL: 0 CELLS/uL
  ABSOLUTE EOSINOPHIL: 0 CELLS/uL
  ABSOLUTE LYMPHOCYTE: 12013.67 CELLS/uL
  ABSOLUTE MONOCYTE: 153.67 CELLS/uL
  ABSOLUTE SEGMENTED NEUTROPHIL: 1099.33 CELLS/uL
  BASOPHIL: 0%
  EOSINOPHIL: 0%
  ERYTHROCYTE COUNT: 5.94 x10E6/uL
  HEMATOCRIT: 37.2%
  HEMOGLOBIN: 13.73 G/DL
  LEUKOCYTE COUNT: 13.27 x10E3/uL
  LYMPHOCYTE: 90.67%
  MEAN CORPUSCULAR HEMOGLOBIN: 23.2 pg
  MEAN CORPUSCULAR HEMOGLOBIN CONCENTRATION: 36.93 G/DL
  MEAN CORPUSCULAR VOLUME: 62.77 fL
  MONOCYTE: 1.33%
  NEUTROPHIL: 8%
  NUCLEATED RED BLOOD CELLS: 0.33 /100WBC
  PLATELET COUNT: 1474.67 x10E3/uL
  ALANINE AMINOTRANSFERASE: 38 u/L
  ALBUMIN: 4.23 G/DL
  ALKALINE PHOSPHATASE: 363.67 u/L
  ASPARTATE AMINOTRANSFERASE: 88.33 u/L
  BLOOD UREA NITROGEN: 20.33 mg/dL
  CARBON DIOXIDE: 22 mmol/L
  CHLORIDE: 104.33 MEQ/L
  CHOLESTEROL: 68 mg/dL
  CREATINE PHOSPHOKINASE: 230.33 u/L
  CREATININE: 0.22 mg/dL
  GLUCOSE: 166.67 mg/dL
  LACTATE DEHYDROGENASE: 119.33 u/L
  LIPASE: 10.33 u/L
  PHOSPHORUS: 13.2 mg/dL
  POTASSIUM: 6.55 MEQ/L
  SODIUM: 146.7 MEQ/L
  TOTAL BILIRUBIN: 0.13 mg/dL
  TOTAL PROTEIN: 6.17 G/DL
  URIC ACID: 2.23 mg/dL
[3]
  ABSOLUTE BASOPHIL: 0 CELLS/uL
  ABSOLUTE EOSINOPHIL: 0 CELLS/uL
  ABSOLUTE LYMPHOCYTE: 9340.33 CELLS/uL
  ABSOLUTE MONOCYTE: 29.33 CELLS/uL
  ABSOLUTE SEGMENTED NEUTROPHIL: 363.67 CELLS/uL
  BASOPHIL: 0%
  EOSINOPHIL: 0%
  ERYTHROCYTE COUNT: 5.26 x10E6/uL
  HEMATOCRIT: 32.03%
  HEMOGLOBIN: 12.07 G/DL
  LEUKOCYTE COUNT: 9.73 x10E3/uL
  LYMPHOCYTE: 96%
  MEAN CORPUSCULAR HEMOGLOBIN: 22.9 pg
  MEAN CORPUSCULAR HEMOGLOBIN CONCENTRATION: 37.7 G/DL
  MEAN CORPUSCULAR VOLUME: 60.9 fL
  MONOCYTE: 0.33%
  NEUTROPHIL: 3.67%
  NUCLEATED RED BLOOD CELLS: 0 /100WBC
  PLATELET COUNT: 1317.67 x10E3/uL
  ALANINE AMINOTRANSFERASE: 17.33 u/L
  ALBUMIN: 4.3 G/DL
  ALKALINE PHOSPHATASE: 341 u/L
  ASPARTATE AMINOTRANSFERASE: 104.67 u/L
  BLOOD UREA NITROGEN: 15.33 mg/dL
  CARBON DIOXIDE: 18.67 mmol/L
  CHLORIDE: 104.33 MEQ/L
  CHOLESTEROL: 69.33 mg/dL
  CREATINE PHOSPHOKINASE: 704 u/L
  CREATININE: 0.25 mg/dL
  GLUCOSE: 179.67 mg/dL
  LACTATE DEHYDROGENASE: 167.67 u/L
  LIPASE: 10 u/L
  PHOSPHORUS: 12.03 mg/dL
  POTASSIUM: 6.43 MEQ/L
  SODIUM: 147.5 MEQ/L
  TOTAL BILIRUBIN: 0.2 mg/dL
  TOTAL PROTEIN: 5.87 G/DL
  URIC ACID: 1.67 mg/dL
[4]
  ABSOLUTE BASOPHIL: 0 CELLS/uL
  ABSOLUTE EOSINOPHIL: 44.67 CELLS/uL
  ABSOLUTE LYMPHOCYTE: 13100 CELLS/uL
  ABSOLUTE MONOCYTE: 44.67 CELLS/uL
  ABSOLUTE SEGMENTED NEUTROPHIL: 1177.33 CELLS/uL
  BASOPHIL: 0%
  EOSINOPHIL: 0.33%
  ERYTHROCYTE COUNT: 4.96 x10E6/uL
  HEMATOCRIT: 30%
  HEMOGLOBIN: 11.57 G/DL
  LEUKOCYTE COUNT: 14.37 x10E3/uL
  LYMPHOCYTE: 91%
  MEAN CORPUSCULAR HEMOGLOBIN: 23.37 pg
  MEAN CORPUSCULAR HEMOGLOBIN CONCENTRATION: 38.53 G/DL
  MEAN CORPUSCULAR VOLUME: 60.57 fL
  MONOCYTE: 0.33%
  NEUTROPHIL: 8.33%
  NUCLEATED RED BLOOD CELLS: 0 /100WBC
  PLATELET COUNT: 1665.67 x10E3/uL
  ALANINE AMINOTRANSFERASE: 14.33 u/L
  ALBUMIN: 3.5 G/DL
  ALKALINE PHOSPHATASE: 153 u/L
  ASPARTATE AMINOTRANSFERASE: 98.33 u/L
  BLOOD UREA NITROGEN: 16.33 mg/dL
  CARBON DIOXIDE: 33 mmol/L
  CHLORIDE: 105.33 MEQ/L
  CHOLESTEROL: 68.67 mg/dL
  CREATINE PHOSPHOKINASE: 888.33 u/L
  CREATININE: 0.12 mg/dL
  GLUCOSE: 159 mg/dL
  LACTATE DEHYDROGENASE: 129 u/L
  LIPASE: 9.33 u/L
  PHOSPHORUS: 11.03 mg/dL
  POTASSIUM: 6.72 MEQ/L
  SODIUM: 145.83 MEQ/L
  TOTAL BILIRUBIN: 0.2 mg/dL
  TOTAL PROTEIN: 4.83 G/DL
  URIC ACID: 1.5 mg/dL
